In paper PMC5384220 (Nature Communications, 2017):
Entries after “also recorded” stand apart in the source; their conditions may differ.

Columns and labels:
[1] = target: T1, His-KDM4A1-359 (Homo sapiens, UniProt O75164); experiment: Formaldehyde dehydrogenase coupled KDM assay (mode of inhibition); format: biochemical
T1 construct: using 0.5 μM His-KDM4A1–359; made in house
T1 sequence (O75164 1-359): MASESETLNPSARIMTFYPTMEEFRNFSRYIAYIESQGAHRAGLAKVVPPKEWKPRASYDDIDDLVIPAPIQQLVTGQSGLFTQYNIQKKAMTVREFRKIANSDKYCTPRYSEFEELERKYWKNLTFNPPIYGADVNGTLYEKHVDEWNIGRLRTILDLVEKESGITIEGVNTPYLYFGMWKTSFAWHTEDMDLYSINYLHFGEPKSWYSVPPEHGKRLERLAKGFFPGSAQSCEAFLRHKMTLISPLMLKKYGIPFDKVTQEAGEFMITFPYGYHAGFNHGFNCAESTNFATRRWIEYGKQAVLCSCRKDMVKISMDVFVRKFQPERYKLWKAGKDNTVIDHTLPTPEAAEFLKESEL
Description: The formaldehyde dehydrogenase coupled KDM assay was used to determine the mode of inhibition[34], using 0.5 μM His-KDM4A1–359. Prism 5.0 (GraphPad) was used to fit in mix-mode inhibition, to determine the kinetic parameters. Binding constants for CPs and H3(1–15)K9me3 were measured using biolayer interferometry (OctetRed 384, ForteBio) in buffer (50 mM HEPES (pH 7.5), 150 mM NaCl, 10 μM ammonium iron(II) sulphate). His-KDM4A1–359-Bio (70 nM) was immobilized onto super streptavidin biosensor and subjected to different peptide concentrations in buffer. Data analysis was performed using ForteBio Data Aalysis (v6.4).
KDM4A1-359 was immobilized and analysed for binding to peptides at different concentrations.
The concentration of KDM4A in the assay mixture was 0.5 µM.

[2] = target: T2, KDM4A (Homo sapiens, UniProt O75164); experiment: AlphaScreen demethylase activity assay, KDM4A; format: biochemical; conditions: ratio of IC50 values
T2 construct: KDM4A 1-359 E.coli; Hexa-His (N); made in house; host or cells: E. coli
T2 sequence (O75164 1-359): T1 sequence (O75164 1-359)
Description: IC50 values for KDM2–6 were measured using an AlphaScreen assay as described. The appropriate KDM (5 μl) was pre-incubated with an inhibitor (0.1 μl in DMSO) or DMSO for 15 min before the addition of 5 μl mixture of biotinylated peptide substrates, 2OG, ferrous ammonium sulfate (1–10 μM final) and ascorbate (100 μM final) to initiate the demethylation reaction. The reaction was quenched with 5 μl of 30 mM EDTA at predetermined reaction times for each enzyme (initial rate). Demethylated product was detected by addition of 5 μl of AlphaScreen donor and acceptor beads (AlphaScreen General IgG Detection Kit, 0.02 mg ml^−1 final each) pre-incubated with antibody. The plates were read after 1 h incubation in a BMG Labtech Pherastar FS plate reader. Data were normalized to a no enzyme control and IC50 values were calculated using nonlinear regression curve fits using GraphPad Prism. Assay buffer (50 mM HEPES pH 7.5, BSA (0.1% w/v) and Tween-20 (0.01% v/v)) was used throughout, except for dilution of stock ferrous ammonium sulfate solutions where water was used. The enzyme, substrate and antibody concentrations used are described in Supplementary Table 3. A fluorescence-based LSD1 inhibitor screening assay kit (Cayman, 700120) was used for KDM1/LSD1 assay. Assays for prolyl hydroxylase domain 2 and factor inhibiting HIF using matrix-assisted laser desorption/ionization–time of flight MS were performed as previously described. Prism 5.0 (GraphPad) was used to generate and to fit dose–response curves. IC50 values were determined by plotting percentage inhibition versus compound concentration relative to positive (vehicle) and negative (no enzyme) controls, using normalized dose–response (variable slope) fit. The reported values are the mean of multiple experiments (n≥3). The formaldehyde dehydrogenase coupled KDM assay was used to determine the mode of inhibition, using 0.5 μM His-KDM4A1–359. Prism 5.0 (GraphPad) was used to fit in mix-mode inhibition, to determine the kinetic parameters. Binding constants for CPs and H3(1–15)K9me3 were measured using biolayer interferometry (OctetRed 384, ForteBio) in buffer (50 mM HEPES (pH 7.5), 150 mM NaCl, 10 μM ammonium iron(II) sulphate). His-KDM4A1–359-Bio (70 nM) was immobilized onto super streptavidin biosensor and subjected to different peptide concentrations in buffer. Data analysis was performed using ForteBio Data Aalysis (v6.4).
Construct Expression [E] / nM [2OG] / µM [Fe(II)] / µM Peptide / nM Peptide sequence Antibody Source […]
Supplementary Table 3. AlphaScreen assay parameters for 2OG oxygenases used for this study. The table was dapted from 10. Assays were performed at 2OG concentration near the 2OG Km values determined experimentally.11 All enzymes were expressed and purified as described.10-12

[3] = target: T3, FLAG-KDM4E (Homo sapiens, UniProt B2RXH2); experiment: CETSA, FLAG-KDM4E in U2OS cells; format: cell-based; conditions: 0.5 µM
T3 construct: expressed in transfected cells; host or cells: U2OS
T3 sequence (B2RXH2 1-506): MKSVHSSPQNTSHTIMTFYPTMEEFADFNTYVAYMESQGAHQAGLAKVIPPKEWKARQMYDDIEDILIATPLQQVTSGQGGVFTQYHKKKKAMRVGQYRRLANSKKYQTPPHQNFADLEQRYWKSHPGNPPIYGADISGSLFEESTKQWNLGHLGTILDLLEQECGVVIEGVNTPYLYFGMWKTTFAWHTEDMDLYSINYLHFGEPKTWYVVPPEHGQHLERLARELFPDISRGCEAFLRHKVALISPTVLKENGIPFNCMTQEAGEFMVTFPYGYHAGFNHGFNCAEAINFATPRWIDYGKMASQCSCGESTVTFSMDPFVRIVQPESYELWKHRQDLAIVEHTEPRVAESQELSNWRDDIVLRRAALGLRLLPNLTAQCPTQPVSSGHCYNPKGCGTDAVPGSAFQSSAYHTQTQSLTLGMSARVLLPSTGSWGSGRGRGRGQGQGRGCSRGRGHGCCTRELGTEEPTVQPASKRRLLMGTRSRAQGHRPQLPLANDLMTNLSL
Description: For CETSA melting curve experiments, 80% confluent U2OS cells in a 75 cm^2 flask were transfected with a plasmid encoding full-length Flag-tagged KDM4A1–1,064 (ref. [15]) or KDM4E1–506 (ref. [20]) using Lipofectamine 2000 (Thermo Scientific) and incubated for 4 h. The cells were washed with PBS buffer and media replaced with fresh DMEM with 10% FBS, supplemented with cyclic peptides in DMSO (0.1% DMSO final). Cell dosing was carried out for 20 h at 37 °C. Control cells were dosed only with DMSO. The cells were trypsinized and washed thrice with PBS, by centrifugation (300 g, 3 min, 4 °C). Cells were re-suspended in PBS supplemented with Complete Protease inhibitor cocktail (Sigma) and divided into 8–10 aliquots (100 μl) containing equal cell numbers in PCR tubes. For ITDRF CETSA experiments, approximately 6 × 10^6 cells were seeded evenly into nine 25 cm^2 flask and adhered before transfection. After 4 h of incubation, the cells were washed with PBS buffer and the media replaced with fresh DMEM with 10% FBS supplemented with cyclic peptides at a final concentration between 0 and 4,000 nM (0.1% DMSO final). Cells were trypsinized and washed thrice with PBS using centrifugation (300 g, 3 min, 4 °C). Cells were re-suspended in PBS supplemented with protease inhibitor cocktail (Sigma), aliquots (100 μl) containing equal cell numbers in PCR tubes were prepared. […] For ITDRF, tubes were incubated at approximately the Tm of the proteins of interest as determined by CETSA melting curve experiments, for example, 55 °C (Tm for actin) for 3 min, followed by room temperature for 3 min. […]
The samples (supernatant) were run on SDS–PAGE (NuPage Novex Bis-Tris 4–12% polyacrylamide gels with NuPAGE MES SDS running buffer (Thermo Scientific)) and transferred onto nitrocellulose membranes using either the iBlot blotting system. FLAG-KDM4A levels were determined by immunoblotting using a monoclonal mouse anti-FLAG primary antibody (F1804, Sigma), at a dilution of 1: 1,000 in PBS-T buffer containing Seablock Reagent Salmon Plasma (2% v/v, Calbiochem). […]

DYVYNTRSGWRWYTC [CP2]
α (mixed-mode inhibition parameter) ([1]; FDH assay, 0.5 µM KDM4A): 4.73
Mode of inhibition with respect to H3K9me3 ([1]; kinetic analyses): competitive inhibitor
Intra-subfamily selectivity KDM4A-C over KDM4D-E [2]: > 100 fold
Selectivity by IC50 for KDM4 over other JmjC-demethylase families, PHD2, FIH and KDM1A [2]: > 160 fold
CETSA stabilization / Tm shift of FLAG-KDM4E [3]: No significant changes in the Tm shift; also recorded: not stabilized
